This is an account of results in US4382937A, “Naphthyridine derivatives and their use as anti-bacterials” (Dainippon Pharmaceutical Co., Ltd., priority 1981, dated 1983).

One series concerns Enterobacter cloacae 963. Kind of series: In vitro antibacterial activity (MIC), twofold agar-dilution method. Format: cell-based. Particulars: Enterobacter cloacae 963, twofold agar-dilution; read-out: minimum inhibitory concentration (MIC). How it is done: (§1) The minimum inhibitory concentrations (MIC: μg/ml) of the following compounds were measured by the twofold agar-dilution method according to the procedure described in Chemotherapy, Vol. 29, No. 1, page 76 (1981).

Series [1] deals with Escherichia coli NIHJ JC-2. Described as above. In kind it is cell-based. The conditions noted are these: NIHJJC2; Escherichia coli NIHJ JC-2, twofold agar-dilution; read-out: minimum inhibitory concentration (MIC). How it is done: as §1
The subject of series [2] is Escherichia coli P-5101. Described as above. In kind it is cell-based. Particulars: P5101; Escherichia coli P-5101, twofold agar-dilution; read-out: minimum inhibitory concentration (MIC). The method, then:
as §1

Series [3] concerns Klebsiella pneumoniae No. 13. The series is described as above. Format: cell-based. Particulars: Klebsiella pneumoniae No. 13, twofold agar-dilution; read-out: minimum inhibitory concentration (MIC). How it is done: as §1
In series [4] the test system is Proteus mirabilis IFO 3849-4. The description is as above. The conditions noted are these: IFO3849; Proteus mirabilis IFO 3849-4, twofold agar-dilution; read-out: minimum inhibitory concentration (MIC). Format: cell-based. How it is done:
as §1

The test system of a further series is Proteus morganii Kono. The description is as above. Format: cell-based. The conditions noted are these: Morganella morganii, read-out: minimum inhibitory concentration (MIC). The method, then:
as §1

For series [5], the system named is Pseudomonas aeruginosa No. 12. Described as above. Format: cell-based. Particulars: Pseudomonas aeruginosa No. 12, twofold agar-dilution; read-out: minimum inhibitory concentration (MIC). The method, then: as §1
Series [6] deals with Pseudomonas aeruginosa Tsuchiijima. Described as above. Format: cell-based. The conditions noted are these: read-out: minimum inhibitory concentration (MIC). How it is done: as §1
Series [7] has as its system Salmonella enteritidis No. 1891. The series is described as above. In kind it is cell-based. The conditions noted are these: Salmonella enterica; Salmonella enteritidis No. 1891, twofold agar-dilution; read-out: minimum inhibitory concentration (MIC). The method, then:
as §1

In series [8] the test system is Salmonella typhimurium S-9. Described as above. In kind it is cell-based. The conditions noted are these: Salmonella enterica; Salmonella typhimurium S-9, twofold agar-dilution; read-out: minimum inhibitory concentration (MIC). How it is done: as §1
The test system of series [9] is Serratia marcescens IFO 3736. The series is described as above. Particulars: IFO3736; Serratia marcescens IFO 3736, twofold agar-dilution; read-out: minimum inhibitory concentration (MIC). Format: cell-based. How it is done: as §1
The subject of a further series is Shigella flexneri 2a. Described as above. In kind it is cell-based. The conditions noted are these: read-out: minimum inhibitory concentration (MIC). How it is done: as §1
Series [10] deals with Escherichia coli P-5101. Nature of the series: In vivo therapeutic efficacy against systemic infections in mice. Details: species or system mice (ddY). Particulars: P5101, 168 h; systemic infection, Escherichia coli P-5101, male mice, po, twice (about 5 minutes and 6 hours after infection), 7 days, Behrens-Kaerber; read-out: median effective dose (ED50). The method, then: (§2) Compounds 1 and A were each suspended in a 0.2% aqueous solution of sodium carboxymethyl cellulose. Each of the solutions was orally administered to mice infected with each of the test organisms under the conditions described below, and the median effective doses (ED50) obtained are shown in Table II. Male mice (ddY) weighing about 20 g (1) Escherichia coli P-5101: Intraperitoneal infection with about 9×10^6 cells per mouse suspended in trypto-soy broth with 4% mucin. Twice, about 5 minutes and 6 hours after infection. for 7 days. | The numerals in the table show ED50 (mg/kg). ED50 values were | calculated in accordance with the BehrensKaerber method (Arch. Exp. Path. | Pharm., 162, 480 (1931)). | po: oral administration.

In series [11] the test system is Pseudomonas aeruginosa No. 12. Described as above. Also noted: species or system mice (ddY). The conditions noted are these: 168 h; systemic infection, Pseudomonas aeruginosa No. 12, male mice, po, twice (about 5 minutes and 6 hours after infection), 7 days, Behrens-Kaerber; read-out: median effective dose (ED50). How it is done:
as §2, with “(2) Pseudomonas aeruginosa No. 12:” for “(1) Escherichia coli P-5101:”, “4×10^3” for “9×10^6”

Series [12] relates to Pseudomonas aeruginosa No. 12. Nature of the series: In vivo therapeutic efficacy against pulmonary infection in mice. Particulars: NO.12, 120 h, female mice, po, 0, 1 and 3 hours after infection, survival on 5th day, probit analysis. Details: species or system mice (ddY-S). How it is done:
(§3) Female mice (ddY-S) weighing 18 to 26 g were intranasally intected with 4 drops of a bacterial suspension* in physiological saline. Drugs suspended in 0.2% sodium carboxymethyl cellulose were orally administered 0, 1, and 3 hours after infection. Survival rates were determined on the 5th day after infection. ED50 was calculated by probit analysis.
*Pseudomonas aeruginosa No. 12--2.0×10^7 cells/mouse

For series [13], the system named is Pseudomonas aeruginosa No. 12. Kind of series: In vivo therapeutic efficacy against ascending kidney infection. Also noted: species or system mice (Std:ddY-S). Particulars: NO.12, 120 h, female mice, po, twice a day for 3 days, kidneys on 5th day, probit analysis. The method, then: Compounds 1 and A were tested by the following procedure for therapeutic efficacy against the ascending kidney infection with Pseudomonas aeruginosa No. 12 in mice. Female mice (Std:ddY-S) weighing 22 to 30 g were anesthetized by intravenous injection of sodium pentobarbital at a dose of 50 mg/kg. Through a small suprapubic incision, the urinary bladder was exposed and then infected by injecting 0.1 ml of a 1:10,000 dilution of Pseudomonas aeruginosa No. 12 cultured for 20 hours in trypto-soy broth, using a 0.25 ml syringe with a 0.25 mm needle. The mice were restrained from drinking water for a period from 1 day before to 1 day after the infection. The compound 1 or A was administered orally twice a day for 3 days starting on the day of infection. On the 5th day after infection, the kidneys were harvested for the detection of the bacteria, transversely bisected and stamped on King A agar, which were incubated at 37° C. overnight. No bacterial finding in the kidneys was regarded as protected from the ascending kidney infection. ED50 values were calculated by probit analysis.

In series [14] the test system is Pseudomonas aeruginosa No. 12. Nature of the series: In vivo therapeutic efficacy against dermal infections. Particulars: NO.12, 96 h, dermal infection, female mice, po, 6 times (0, 3, 6, 24, 27, 30 hours), abscess on 4th day, probit analysis. Also noted: species or system mice (ddY-S). How it is done: Female mice (ddY-S) weighing 21 to 26 g were subcutaneously infected at the dorsal skin with approximate 9×10^6 viable cells of Pseudomonas aeruginosa No. 12 in 0.2 ml physiological saline. Medication was performed 6 times; 0, 3, 6, 24, 27, and 30 hours after infection. The appearance of skin abscess at the inoculated site was examined on the 4th day after infection and mice bearing no abscess were regarded as protected from the infection. ED50 was calculated by probit analysis.

Series [15] is described as follows: Acute oral toxicity in mice. The conditions noted are these: mouse, in vivo, male mice, deaths after 7 days, Behrens-Kaerber, read-out: median lethal dose (LD50). How it is done: A solution containing compound 1 in various concentrations was orally given to male mice (ddY-S) at a volume of 0.1 ml per 10 g of body weight. The number of dead mice was counted after 7 days, and the value of median lethal dose (LD50; mg/kg) was calculated in accordance with the Behrens-Kaerber method.

The test system of another series is Gram-negative bacteria. Nature of the series: In vivo antibacterial efficacy (Tables II to V), overall comparison. Details: species or system mice. The conditions noted are these: compound 1 compared with compound A.
From the text: Compounds 1 and A were each suspended in a 0.2% aqueous solution of sodium carboxymethyl cellulose. Each of the solutions was orally administered to mice infected with each of the test organisms under the conditions described below, and the median effective doses (ED50) obtained are shown in Table II.
as §3
Female mice (Std:ddY-S) weighing 22 to 30 g were anesthetized by intravenous injection of sodium pentobarbital at a dose of 50 mg/kg. Through a small suprapubic incision, the urinary bladder was exposed and then infected by injecting 0.1 ml of a 1:10,000 dilution of Pseudomonas aeruginosa No. 12 cultured for 20 hours in trypto-soy broth, using a 0.25 ml syringe with a 0.25 mm needle. […] ED50 values were calculated by probit analysis.
Female mice (ddY-S) weighing 21 to 26 g were subcutaneously infected at the dorsal skin with approximate 9×10^6 viable cells of Pseudomonas aeruginosa No. 12 in 0.2 ml physiological saline. […] ED50 was calculated by probit analysis.

Converted amounts (≈) assume the structure as drawn.

In the case of `CCn1cc(C(=O)O)c(=O)c2cc(F)c(N3CCC(N)C3)nc21` (stereo not drawn) [A, 7-(3-Amino-1-pyrrolidinyl)-1-ethyl-6-fluoro-1,4-dihydro-4-oxo-1,8-naphthyridine-3-carboxylic acid, reference compound], the MIC with Enterobacter cloacae 963 was 0.2 µg/mL (≈ 0.624 µM); in series [1], 0.1 µg/mL (≈ 0.312 µM); with Escherichia coli P-5101 [2], 0.05 µg/mL (≈ 0.156 µM); in series [3], 0.2 µg/mL (≈ 0.624 µM); in [4], 0.39 µg/mL (≈ 1.22 µM); in the series on Proteus morganii Kono, 0.2 µg/mL (≈ 0.624 µM). Moreover, the MIC in series [5] was 0.39 µg/mL (≈ 1.22 µM); in [6], 0.39 µg/mL (≈ 1.22 µM); in series [7], 0.05 µg/mL (≈ 0.156 µM); in series [8], 0.1 µg/mL (≈ 0.312 µM); in series [9], 0.2 µg/mL (≈ 0.624 µM); in the series on Shigella flexneri 2a, 0.1 µg/mL (≈ 0.312 µM). Further, the ED50 with Escherichia coli P-5101 [10] was found to be 1.6 mg/kg; in series [11] it was 6.7 mg/kg; in series [12], 19.7 mg/kg; in series [13], 3 mg/kg; in [14] it was 11.7 mg/kg.

On to `C=Cn1cc(C(=O)O)c(=O)c2cc(F)c(N3CCC(N)C3)nc21` (stereo not drawn) [Compound 1, 7-(3-Amino-1-pyrrolidinyl)-6-fluoro-1,4-dihydro-4-oxo-1-vinyl-1,8-naphthyridine-3-carboxylic acid], for which the MIC with Enterobacter cloacae 963 amounted to 0.05 µg/mL (≈ 0.157 µM); in series [1], 0.025 µg/mL (≈ 0.0785 µM); in the series with Escherichia coli P-5101 [2], 0.025 µg/mL (≈ 0.0785 µM); in series [3], 0.1 µg/mL (≈ 0.314 µM); in series [4] it was 0.2 µg/mL (≈ 0.628 µM); in the series with Proteus morganii Kono, 0.05 µg/mL (≈ 0.157 µM). Besides, the MIC in series [5] stood at 0.2 µg/mL (≈ 0.628 µM); in series [6], 0.2 µg/mL (≈ 0.628 µM); in series [7] it was 0.025 µg/mL (≈ 0.0785 µM); in series [8], 0.05 µg/mL (≈ 0.157 µM); in series [9] it was 0.2 µg/mL (≈ 0.628 µM); in the series on Shigella flexneri 2a, 0.025 µg/mL (≈ 0.0785 µM). Also, the ED50 in the series with Escherichia coli P-5101 [10] was determined as 0.8 mg/kg; in series [11], 1.8 mg/kg; in [12], 6.3 mg/kg; in series [13], 0.5 mg/kg; in series [14], 2.4 mg/kg. For the same compound, the LD50 at 168 h in series [15] was over 4000 mg/kg. For the same compound, the “in vivo antibacterial efficacy against Gram-negative bacteria” value in the series with Gram-negative bacteria is “much better in vivo antibacterial efficacy against Gram-negative bacteria than the compound A”.

Usually ED50 stands for the midpoint of the dose-response relation. As a reminder, the LD50 is the dose expected to kill half of the subjects tested.
